The results in this text go back to PubChem BioAssay (NCI).

Holding throughout (assay): NCI-60 cell line screen, 48 h
Assay [1] has as its system MDA-MB-231 breast.
The test system of assay [2] is UO-31 renal.
In assay [3] the test system is K-562 leukemia.
Assay [4] relates to COLO 205 colon.
Assay [5] deals with HCT-15 colon.
The subject of assay [6] is KM12 colon.
Assay [7] deals with SF-539 CNS.
The subject of assay [8] is HCT-116 colon.
The subject of assay [9] is ACHN renal.
Assay [10] concerns SN12C renal.
Assay [11] relates to OVCAR-3 ovarian.
Assay [12] deals with SF-268 CNS.
Assay [13] concerns EKVX NSCLC.
For assay [14], the system named is HL-60(TB) leukemia.
Assay [15] concerns CAKI-1 renal.
In assay [16] the test system is SK-MEL-5 melanoma.
The subject of assay [17] is RXF 393 renal.
For assay [18], the system named is LOX IMVI melanoma.

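Tested at 5 concentrations; 48 h exposure; 96-well plates; endpoints linearly interpolated, else capped at highest concentration. The concentration for full growth arrest is given as TGI.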

As to `O=c1c2c(c1=O)C1(SCCCS1)c1cc(Cl)ccc1O2`, the TGI in assay [1], in [2], in assay [3], in assay [4], in assay [5] and in [6] was > 100 µM in each case. Further, the TGI in assay [7], in [8], in assay [9], in assay [10], in assay [11] and in assay [12] was > 100 µM in each case. Besides, the TGI in [13], in [14], in [15], in assay [16], in assay [17] and in [18] was > 100 µM in each case.

As to `C/C(=N\Nc1ccccc1Br)c1cccc(/C(C)=N/Nc2ccccc2Br)n1`, the TGI in [1], in assay [2], in [3], in assay [4], in assay [5] and in assay [6] was > 100 µM in each case. For the same compound, the TGI in assay [7], in [8], in assay [9], in assay [10], in assay [11] and in [12] was > 100 µM each time. For the same compound, the TGI was > 100 µM in assay [13]; > 100 µM in [14]; > 100 µM in [15]; > 100 µM in assay [16]; 42.4 µM in assay [17]; > 100 µM in assay [18].

Consider `COc1ccc(C2C3CCc4ccccc4C3=NN2S(=O)(=O)c2ccc(Cl)cc2)cc1` (configuration not stated), for which the TGI is > 100 µM in [1]; > 100 µM in assay [2]; 41.8 µM in [3]; 23.1 µM in assay [4]; 4.52 µM in assay [5]; > 100 µM in assay [6]. In addition, the TGI was 39.1 µM in [7]; > 100 µM in assay [8]; 69.2 µM in assay [9]; > 100 µM in assay [10]; > 100 µM in [11]; > 100 µM in [12]. Also, the TGI in [13] was > 100 µM; in assay [14], 74.9 µM; in assay [15], > 100 µM; in assay [16], > 100 µM; in assay [17] it was 58.4 µM; in [18], > 100 µM.

Take `COc1cc2c(cc1OC)CC(=O)c1cc(OC)c(OC)cc1/C=C\2`: the TGI in assay [1], in assay [2], in [3], in assay [4], in [5] and in [6] was > 12.5 µM in each case. Moreover, the TGI in assay [7], in [8], in assay [9], in assay [10], in assay [11] and in assay [12] was > 12.5 µM in each case. For the same compound, the TGI was > 12.5 µM in [13]; 7.05 µM in assay [14]; > 12.5 µM in assay [15]; > 12.5 µM in [16]; > 12.5 µM in assay [17]; > 12.5 µM in assay [18].

With `O=C(Cn1cc(F)c(=O)[nH]c1=O)C12CC3CC(CC(C3)C1)C2`, the TGI in assay [1], in [2], in assay [3], in assay [4], in [5] and in assay [6] was > 100 µM throughout. Further, the TGI in assay [7], in assay [8], in assay [9], in [10], in assay [11] and in assay [12] was > 100 µM in each case. Moreover, the TGI in assay [13], in [14], in assay [15], in [16], in assay [17] and in assay [18] was > 100 µM each time.

`O=C(O)CCC(NC(=O)c1ccc(Nc2cnc3ccc(C(F)(F)F)cc3n2)cc1)C(=O)O` (configuration not stated): the TGI in assay [1], in assay [2], in assay [3], in assay [4], in assay [5] and in assay [6] was > 100 µM throughout. For the same compound, the TGI in assay [7], in [8], in [9], in assay [10], in assay [11] and in [12] was > 100 µM throughout. For the same compound, the TGI in assay [13], in assay [14], in [15], in [16], in [17] and in assay [18] was > 100 µM in each case.

Regarding `O=c1[nH]/c(=C/c2ccc(OCc3ccccc3)cn2)c(=O)[nH]/c1=C/c1ccc(Cl)cc1`, the TGI in assay [1], in assay [2], in assay [3], in assay [4], in assay [5] and in assay [6] was > 100 µM each time. The TGI is > 100 µM in assay [7]; > 100 µM in [8]; > 100 µM in assay [9]; > 100 µM in assay [10]; 2.45 µM in assay [11]; > 52.4 µM in assay [12]. In addition, the TGI in assay [13] was > 100 µM; in assay [14], > 40.2 µM; in assay [15], > 56.6 µM; in assay [16], > 100 µM; in assay [17], > 28.3 µM; in assay [18], > 100 µM.

With `CCCc1c(O)c(=O)c2c(OC)cc(OC)c3c4c(OC)cc(OC)c5c(=O)c(O)c(CCC)c(c1c23)c54`, the TGI in assay [1] came to 7.09 µM; in assay [2], 3.35 µM; in assay [3] it was 0.589 µM; in [4], 8.94 µM; in assay [5], 11.6 µM; in assay [6], 5.41 µM. Further, the TGI is 11.3 µM in assay [7]; 1.23 µM in assay [8]; 3.58 µM in assay [9]; 22.3 µM in assay [10]; > 27.7 µM in assay [11]; 19.5 µM in [12]. The TGI in assay [13] came out at 6.66 µM; in [14] it was 4.64 µM; in assay [15], 2.32 µM; in [16], 1.91 µM; in assay [17] it was 28 µM; in assay [18] it was 1.86 µM.

For the compound `CCCCCCCCCCCCCCCCCCNc1ccn(C2OC(CO)C(O)C2O)c(=O)n1` (configuration not stated), the TGI in assay [1], in [2], in assay [3], in assay [4], in assay [5] and in assay [6] was > 100 µM in each case. The TGI in assay [7], in [8], in [9], in [10], in assay [11] and in assay [12] was > 100 µM throughout. Also, the TGI was > 100 µM in assay [13]; 13.6 µM in assay [14]; > 100 µM in [15]; > 100 µM in assay [16]; > 100 µM in assay [17]; > 100 µM in [18].
